Data as given in ChEMBL document CHEMBL1201862, “PubChem BioAssay data set” (2004).
Activity calls are given as the source filed them.

What was measured:
[1] = molecular target: Nuclear receptor subfamily 5 group A member 2 (Homo sapiens, UniProt O00482); type: functional, cell-based;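 further: HEK293T cells transfected with LRH-1 and a StAR promoter luciferase reporter; potency for inhibitors that lower LRH-1 driven reporter light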
[2] = molecular target: Steroidogenic factor 1 (Homo sapiens, UniProt Q13285); assay: Counterscreen for inverse agonists of the liver receptor homolog-1 (LRH-1; NR5A2): Luminescence-based cell-based high throughput dose response assay to identify inverse agonists of the Steroidogenic Factor 1 Nuclear Receptor (SF1; NR5A1).; type: functional
[3] = nonselective StAR promoter luciferase inhibitors – cell-based, luminescence, luciferase reporter, counter-screen for LRH-1 inverse agonist project, dose response (AID 651969); type: functional
[4] = molecular target: Albumin (Bos taurus, UniProt P02769); assay: Counterscreen for inhibitors of T-cell receptor (TCR)-CD3 interaction: Fluorescence-based biochemical high throughput dose response assay to identify inhibitors of T-cell receptor (TCR)-CD3 interaction using a TAMRA-labeled BSA probe.; type: functional
[5] = molecular target: Beta-lactamase (Salmonella choleraesuis (strain SC-B67), UniProt Q5J463); assay: Epi-absorbance-based counterscreen for selective VIM-2 inhibitors: dose response biochemical high throughput screening assay to identify inhibitors of TEM-1 serine-beta-lactamase.
[6] = molecular target: T1, Beta-lactamase (Pseudomonas aeruginosa, UniProt Q79MP6); assay: inhibition of IMP-1 beta-lactamase activity – biochemical, epi-absorbance, selectivity assay for VIM-2 inhibitor project, dose response (AID 1920)
[7] = molecular target: T1, Beta-lactamase; assay: […] counterscreen for selective VIM-2 inhibitors: dose response biochemical high throughput screening assay to identify inhibitors of IMP-1 metallo-beta-lactamase.
[8] = molecular target: T2, Methionyl-tRNA synthetase, putative (Trypanosoma brucei brucei, UniProt Q38C91); type: functional, Trypanosoma brucei brucei strain 927/4 GUTat10.1
T2 sequence (Q38C91 whole entry): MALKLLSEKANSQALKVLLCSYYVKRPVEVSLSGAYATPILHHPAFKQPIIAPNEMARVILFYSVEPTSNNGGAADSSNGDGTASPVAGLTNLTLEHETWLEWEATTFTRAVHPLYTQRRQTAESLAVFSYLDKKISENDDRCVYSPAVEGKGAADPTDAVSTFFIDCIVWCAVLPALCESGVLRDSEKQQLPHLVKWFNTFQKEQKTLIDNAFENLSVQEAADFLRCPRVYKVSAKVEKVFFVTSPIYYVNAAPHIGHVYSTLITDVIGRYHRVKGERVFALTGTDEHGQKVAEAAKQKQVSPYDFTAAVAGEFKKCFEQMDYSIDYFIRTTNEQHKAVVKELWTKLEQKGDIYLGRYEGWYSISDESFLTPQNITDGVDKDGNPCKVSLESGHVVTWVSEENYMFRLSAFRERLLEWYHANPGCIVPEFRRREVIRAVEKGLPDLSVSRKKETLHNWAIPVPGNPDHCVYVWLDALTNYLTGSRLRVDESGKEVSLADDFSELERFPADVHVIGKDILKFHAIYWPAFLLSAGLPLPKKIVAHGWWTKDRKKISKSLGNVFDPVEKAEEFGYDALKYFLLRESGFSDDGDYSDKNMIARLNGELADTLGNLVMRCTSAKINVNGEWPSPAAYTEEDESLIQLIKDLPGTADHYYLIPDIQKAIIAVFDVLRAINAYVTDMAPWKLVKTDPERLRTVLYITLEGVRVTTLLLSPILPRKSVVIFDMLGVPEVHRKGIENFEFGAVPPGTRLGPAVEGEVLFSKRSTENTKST

[9] = Counterscreen for inhibitors of Trypanosoma brucei methionyl tRNA synthetase (MetRS): Luminescence-based cell-based high throughput dose response assay to identify compounds that are cytotoxic to Jurkat human T lymphocyte cells.; type: functional
[10] = molecular target: T2, Methionyl-tRNA synthetase, putative; type: functional, Trypanosoma brucei brucei strain 927/4 GUTat10.1; remark: listed apart in the source
[11] = A2780 cell killing – plate reader, dry powder samples, cytotoxicity control, dose response (AID 743046); type: functional, cell-based
[12] = molecular target: T3, Sentrin-specific protease 1 (Homo sapiens, UniProt Q9P0U3); assay: SENP1 catalytic domain blockers, concentration series – biochemical, kinetic FRET, dose response (AID 651697); type: functional; settings: read-out: IC50_Mean
T3 sequence (Q9P0U3 whole entry): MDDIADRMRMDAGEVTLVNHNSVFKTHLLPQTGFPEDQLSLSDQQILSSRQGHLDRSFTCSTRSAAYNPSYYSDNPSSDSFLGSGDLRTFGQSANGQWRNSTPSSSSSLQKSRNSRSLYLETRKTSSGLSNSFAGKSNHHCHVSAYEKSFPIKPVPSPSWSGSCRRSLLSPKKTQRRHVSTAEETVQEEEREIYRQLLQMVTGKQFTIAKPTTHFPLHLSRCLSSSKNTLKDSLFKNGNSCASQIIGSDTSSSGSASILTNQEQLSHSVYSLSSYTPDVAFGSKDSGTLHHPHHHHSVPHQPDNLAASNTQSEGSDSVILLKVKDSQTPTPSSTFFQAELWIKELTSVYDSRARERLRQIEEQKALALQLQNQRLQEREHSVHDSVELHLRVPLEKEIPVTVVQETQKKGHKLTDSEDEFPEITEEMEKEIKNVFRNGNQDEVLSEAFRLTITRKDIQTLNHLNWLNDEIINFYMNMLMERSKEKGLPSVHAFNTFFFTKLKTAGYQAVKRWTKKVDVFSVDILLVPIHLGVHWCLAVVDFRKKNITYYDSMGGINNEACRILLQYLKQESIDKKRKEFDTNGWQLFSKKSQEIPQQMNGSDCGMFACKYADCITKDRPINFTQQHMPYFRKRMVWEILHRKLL

[13] = molecular target: T3, Sentrin-specific protease 1; assay: Dose response confirmation of small molecule inhibitors of the catalytic domain of the SUMO protease, SENP1 in a FRET assay.; type: functional; settings: read-out: IC50_Mean
[14] = potency of ADAM10 substrate cleavage blockers – biochemical, QFRET, dose response (AID 743254);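 further: ADAM10 enzyme with the DM2 quenched FRET peptide as substrate; EDANS fluorescence gain as the protease cuts the substrate; inhibitor potency against ADAM10 proteolytic activity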
[15] = molecular target: Disintegrin and metalloproteinase domain-containing protein 17 (Homo sapiens, UniProt P78536); assay: inhibition of ADAM17 substrate cleavage – biochemical, quenched FRET substrate, counter-screen for ADAM10 exosite inhibitor project, dose response (AID 743253)
[16] = Trypanosoma cruzi growth suppression in host cells – NIH3T3 host cells, beta-gal luminescence, confirmation (AID 2044); type: functional, cell-based;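 further: intracellular parasites grown in NIH/3T3 mouse fibroblasts as host cells; luminescent beta-galactosidase reporter signal from transgenic T. cruzi replicating inside host cells; inhibitors lower the luminescence signal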
[17] = NIH3T3 cell viability loss – ATP luminescence, mouse fibroblasts, counter-screen, dose response (AID 2010); type: functional, cell-based;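 further: cells exposed to compound for about 90 hours before reading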
[18] = reduction of Shn3 3'UTR-driven luciferase in osteoblasts – cell-based, Clone20 osteoblasts, firefly luciferase, cherry-picked, dose response (AID 624132); type: functional;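 further: firefly luciferase luminescence from reporter carrying the Shn3 3'UTR in osteoblasts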
[19] = molecular target: 26S proteasome non-ATPase regulatory subunit 14 (Homo sapiens, UniProt O00487); assay: inhibition of proteasome subunit RPN11 – biochemical, fluorescence polarization, uHTS hits, confirmation (AID 602368); type: functional
[20] = loss of viability in HepG2 cells – cell-based, CellTiter-Glo, cherry-picked, cytotoxicity control for Shn3 inhibitor project, dose response (AID 624134); type: functional
[21] = non-specific 3'UTR reporter inhibition in Clone20-Shn3RL – cell-based, Renilla luciferase, cherry-picked, counter-screen for Shn3 inhibitor project, dose response (AID 624133); type: functional
[22] = molecular target: 72 kDa type IV collagenase (Homo sapiens, UniProt P08253); assay: Dose Response validation of uHTS RPN11 inhibitor hits using a MMP-2 Fluorescence assay.; type: functional
[23] = molecular target: Prothrombin (Bos taurus, UniProt P00735); assay: thrombin protease inhibitors – biochemical, fluorescence polarization, uHTS hits, dose response (AID 602369); type: functional
[24] = molecular target: T4, COUP transcription factor 2 (Homo sapiens, UniProt P24468); assay: Luminescence-based cell-based high throughput dose response assay to identify inhibitors of COUP-TFII (NR2F2).; type: functional;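 further: HEK293 cells transiently cotransfected with COUP-TFII expression vector and reporter; luciferase reporter luminescence driven by COUP-TFII from the pX2-168 reporter plasmid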
T4 sequence (P24468 whole entry): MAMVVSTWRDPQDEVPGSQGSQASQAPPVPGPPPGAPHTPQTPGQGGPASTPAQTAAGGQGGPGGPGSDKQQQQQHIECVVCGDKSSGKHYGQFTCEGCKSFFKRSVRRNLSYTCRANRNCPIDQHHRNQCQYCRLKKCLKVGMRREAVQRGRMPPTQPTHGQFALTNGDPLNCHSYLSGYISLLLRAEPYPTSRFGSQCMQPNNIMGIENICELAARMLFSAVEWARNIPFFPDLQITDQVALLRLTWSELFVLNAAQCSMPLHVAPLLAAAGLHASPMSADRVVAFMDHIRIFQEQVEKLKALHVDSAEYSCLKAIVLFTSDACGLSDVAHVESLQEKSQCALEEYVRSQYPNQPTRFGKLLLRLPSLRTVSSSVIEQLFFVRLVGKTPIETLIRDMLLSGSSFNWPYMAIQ

[25] = molecular target: T5, Small ubiquitin-related modifier 1 (Homo sapiens, UniProt P63165); assay: SUMO1 protein interaction blockers, potency – biochemical, fluorescence polarization, uHTS hits, dose response (AID 624382); type: functional; settings: read-out: IC50_Mean
[26] = molecular target: T5, Small ubiquitin-related modifier 1; assay: SUMO1 protein-protein binding blockers, potency – biochemical, FRET, dose response (AID 624383); type: functional; settings: read-out: IC50_Mean
[27] = molecular target: Dual specificity tyrosine-phosphorylation-regulated kinase 1A (Rattus norvegicus, UniProt Q63470); type: biochemical, Homo sapiens

Nuclear receptor subfamily 5 group A member 2, sequence (O00482 whole entry): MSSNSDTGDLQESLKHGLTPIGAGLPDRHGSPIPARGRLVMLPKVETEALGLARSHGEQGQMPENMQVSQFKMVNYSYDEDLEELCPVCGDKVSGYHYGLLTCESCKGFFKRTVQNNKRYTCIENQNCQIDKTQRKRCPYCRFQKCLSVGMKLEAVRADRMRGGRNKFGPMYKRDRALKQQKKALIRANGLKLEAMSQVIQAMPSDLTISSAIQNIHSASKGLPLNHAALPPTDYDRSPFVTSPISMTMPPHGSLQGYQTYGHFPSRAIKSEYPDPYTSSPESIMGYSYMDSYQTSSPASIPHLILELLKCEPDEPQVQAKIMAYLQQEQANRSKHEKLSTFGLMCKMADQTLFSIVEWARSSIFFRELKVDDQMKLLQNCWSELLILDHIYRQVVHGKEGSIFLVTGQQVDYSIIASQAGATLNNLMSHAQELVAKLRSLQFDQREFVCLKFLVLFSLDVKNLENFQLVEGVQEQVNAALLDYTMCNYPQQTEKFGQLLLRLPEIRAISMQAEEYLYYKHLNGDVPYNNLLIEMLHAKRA
Steroidogenic factor 1, sequence (Q13285 whole entry): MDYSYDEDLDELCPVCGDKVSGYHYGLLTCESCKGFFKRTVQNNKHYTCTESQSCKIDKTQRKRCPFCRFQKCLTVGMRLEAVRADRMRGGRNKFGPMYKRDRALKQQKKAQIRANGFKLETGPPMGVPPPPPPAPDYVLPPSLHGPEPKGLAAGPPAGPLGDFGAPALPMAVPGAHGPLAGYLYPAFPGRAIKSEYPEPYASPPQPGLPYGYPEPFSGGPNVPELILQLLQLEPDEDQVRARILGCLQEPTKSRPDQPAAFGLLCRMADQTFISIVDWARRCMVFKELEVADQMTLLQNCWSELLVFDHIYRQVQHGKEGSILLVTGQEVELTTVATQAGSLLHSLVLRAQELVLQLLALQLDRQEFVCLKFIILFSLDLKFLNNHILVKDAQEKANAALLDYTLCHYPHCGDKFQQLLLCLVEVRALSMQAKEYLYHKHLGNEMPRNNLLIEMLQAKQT
T1 sequence (Q79MP6 whole entry): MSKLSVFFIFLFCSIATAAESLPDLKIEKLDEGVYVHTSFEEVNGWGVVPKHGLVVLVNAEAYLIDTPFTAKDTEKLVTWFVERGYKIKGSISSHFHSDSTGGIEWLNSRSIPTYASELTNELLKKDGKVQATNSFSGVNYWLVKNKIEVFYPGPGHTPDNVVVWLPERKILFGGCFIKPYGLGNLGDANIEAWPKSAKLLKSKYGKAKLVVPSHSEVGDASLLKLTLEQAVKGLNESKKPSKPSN
Beta-lactamase (Salmonella choleraesuis (strain SC-B67), UniProt Q5J463), sequence (Q5J463 whole entry): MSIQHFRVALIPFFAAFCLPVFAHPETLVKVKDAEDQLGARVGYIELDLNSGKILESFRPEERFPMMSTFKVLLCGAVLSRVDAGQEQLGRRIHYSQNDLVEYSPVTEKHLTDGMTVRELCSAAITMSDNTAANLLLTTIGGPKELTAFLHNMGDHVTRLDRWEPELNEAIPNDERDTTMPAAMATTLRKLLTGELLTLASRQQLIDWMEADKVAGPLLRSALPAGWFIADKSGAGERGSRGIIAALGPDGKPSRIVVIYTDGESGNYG
T5 sequence (P63165 whole entry): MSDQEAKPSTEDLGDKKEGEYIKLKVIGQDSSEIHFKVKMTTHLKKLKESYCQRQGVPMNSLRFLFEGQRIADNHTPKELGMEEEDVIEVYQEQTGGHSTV
Disintegrin and metalloproteinase domain-containing protein 17, sequence (P78536 whole entry, the tested form may be a part): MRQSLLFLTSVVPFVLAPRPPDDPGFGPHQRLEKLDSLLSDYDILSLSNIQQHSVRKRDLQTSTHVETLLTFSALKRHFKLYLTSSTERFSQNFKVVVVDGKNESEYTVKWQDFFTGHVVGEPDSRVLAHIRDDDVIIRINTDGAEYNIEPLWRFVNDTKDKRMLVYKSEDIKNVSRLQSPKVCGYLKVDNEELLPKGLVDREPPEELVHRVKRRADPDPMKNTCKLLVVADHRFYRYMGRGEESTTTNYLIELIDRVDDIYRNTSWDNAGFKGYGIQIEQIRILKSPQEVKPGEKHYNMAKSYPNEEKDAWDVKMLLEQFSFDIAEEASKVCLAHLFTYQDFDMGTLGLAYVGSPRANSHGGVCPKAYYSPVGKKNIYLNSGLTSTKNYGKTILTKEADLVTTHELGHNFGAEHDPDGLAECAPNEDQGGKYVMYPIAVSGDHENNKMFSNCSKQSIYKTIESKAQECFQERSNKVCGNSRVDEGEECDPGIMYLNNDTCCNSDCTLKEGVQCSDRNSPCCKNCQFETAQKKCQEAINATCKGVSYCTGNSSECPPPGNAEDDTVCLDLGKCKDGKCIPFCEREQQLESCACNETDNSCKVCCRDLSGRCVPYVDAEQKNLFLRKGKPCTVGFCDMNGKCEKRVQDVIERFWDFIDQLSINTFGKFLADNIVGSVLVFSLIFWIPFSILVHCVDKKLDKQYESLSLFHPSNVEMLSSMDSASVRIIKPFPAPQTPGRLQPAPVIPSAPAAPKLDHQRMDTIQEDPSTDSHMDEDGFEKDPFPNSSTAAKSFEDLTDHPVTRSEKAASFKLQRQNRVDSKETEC
Albumin, sequence (P02769 whole entry): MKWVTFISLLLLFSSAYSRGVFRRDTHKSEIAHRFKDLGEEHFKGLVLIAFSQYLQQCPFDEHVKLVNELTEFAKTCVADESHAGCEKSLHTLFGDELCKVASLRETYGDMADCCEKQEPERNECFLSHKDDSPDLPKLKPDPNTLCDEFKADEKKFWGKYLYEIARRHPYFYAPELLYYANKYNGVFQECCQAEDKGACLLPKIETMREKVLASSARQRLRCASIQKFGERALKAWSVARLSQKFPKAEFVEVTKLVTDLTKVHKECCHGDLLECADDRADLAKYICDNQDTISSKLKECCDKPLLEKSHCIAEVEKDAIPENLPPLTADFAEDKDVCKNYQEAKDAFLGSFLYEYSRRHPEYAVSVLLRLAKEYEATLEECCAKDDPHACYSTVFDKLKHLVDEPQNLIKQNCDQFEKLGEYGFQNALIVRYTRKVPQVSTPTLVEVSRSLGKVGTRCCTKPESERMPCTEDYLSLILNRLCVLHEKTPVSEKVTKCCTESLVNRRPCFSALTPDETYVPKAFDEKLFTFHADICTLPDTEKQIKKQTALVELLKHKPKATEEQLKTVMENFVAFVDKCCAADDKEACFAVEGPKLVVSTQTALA
72 kDa type IV collagenase, sequence (P08253 whole entry): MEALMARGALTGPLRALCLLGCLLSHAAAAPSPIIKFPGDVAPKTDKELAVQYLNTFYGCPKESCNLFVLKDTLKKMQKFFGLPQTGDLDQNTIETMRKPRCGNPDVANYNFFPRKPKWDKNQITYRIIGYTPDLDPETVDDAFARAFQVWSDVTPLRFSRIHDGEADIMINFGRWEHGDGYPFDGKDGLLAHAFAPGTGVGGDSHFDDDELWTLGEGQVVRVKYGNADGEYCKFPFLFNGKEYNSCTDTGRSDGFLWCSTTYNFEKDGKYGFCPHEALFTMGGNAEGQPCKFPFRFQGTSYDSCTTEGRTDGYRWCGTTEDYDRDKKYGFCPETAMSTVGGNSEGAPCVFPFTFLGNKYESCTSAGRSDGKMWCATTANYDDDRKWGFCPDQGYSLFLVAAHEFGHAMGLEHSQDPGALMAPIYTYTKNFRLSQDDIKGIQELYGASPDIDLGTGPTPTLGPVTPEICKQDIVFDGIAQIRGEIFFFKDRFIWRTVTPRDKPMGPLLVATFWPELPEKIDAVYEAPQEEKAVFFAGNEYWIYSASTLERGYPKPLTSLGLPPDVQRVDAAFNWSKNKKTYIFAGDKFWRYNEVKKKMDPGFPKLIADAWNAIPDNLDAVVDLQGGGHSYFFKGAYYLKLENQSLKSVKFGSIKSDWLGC
26S proteasome non-ATPase regulatory subunit 14, sequence (O00487 whole entry): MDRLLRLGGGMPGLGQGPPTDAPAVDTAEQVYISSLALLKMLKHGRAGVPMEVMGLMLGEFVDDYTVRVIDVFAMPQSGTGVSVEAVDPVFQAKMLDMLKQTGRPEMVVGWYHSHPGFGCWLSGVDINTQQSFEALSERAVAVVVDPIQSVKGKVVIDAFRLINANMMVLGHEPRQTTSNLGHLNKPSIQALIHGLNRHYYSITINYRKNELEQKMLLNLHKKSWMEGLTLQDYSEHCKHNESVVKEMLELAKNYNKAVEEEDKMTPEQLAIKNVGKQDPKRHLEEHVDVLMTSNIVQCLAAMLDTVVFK

SMILES: CCCc1cc(=O)oc2cc(OCC(=O)NCc3ccccn3)ccc12
- IC50 [1]: 35.9 µM (inactive)
- IC50 [2]: 1.97 µM (active)
- IC50 [3]: 35.9 µM (inactive)

SMILES: COc1ccc(C(=O)NNC(=S)NC(=O)c2cccnc2)cc1
- IC50 [4]: > 94.1 µM (inactive)

SMILES: COc1ccc(-c2cc(C(F)(F)F)nc(N3CCN(C)CC3)n2)cc1
- IC50 [5]: > 59.6 µM (inactive)
- IC50 [6]: > 59.6 µM (inactive)
- IC50 [7]: > 59.6 µM (inactive)

SMILES: O=C(CN1CCS/C1=N/Cc1ccccc1)c1ccc(Cl)c(Cl)c1
- IC50 [8]: 3.92 µM (active)
- IC50 [9]: 48.2 µM (inactive)
- IC50 [10]: 2.67 µM (active)

SMILES: C[C@@H]1CN([C@@H](C)CO)C(=O)c2cc(NC(=O)Nc3ccccc3)ccc2O[C@@H](C)CCCCO[C@H]1CN(C)Cc1ccc(Cl)c(Cl)c1
- AC50 [11]: 3.59 µM (active)

SMILES: CC1CCCC(C)N1C(=O)CSc1nnc(NC(=O)c2cccs2)s1 (stereo not given)
- IC50 [5]: > 59.6 µM (inactive)
- IC50 [6]: > 59.6 µM (inactive)
- IC50 [7]: > 59.6 µM (inactive)

SMILES: O=C(CSc1nnc(CNC(=O)c2c(F)cccc2F)o1)Nc1ccc2c(c1)OCCO2
- IC50 [1]: 35.9 µM (inactive)
- IC50 [2]: 31 µM (inactive)
- IC50 [3]: 35.9 µM (inactive)

SMILES: Cc1cccc(C)c1-n1nnnc1-c1nc2cc3ccccc3cc2nc1O
- IC50 [12]: 7.1 µM (active)
- IC50 [13]: 1.93 µM (active)

SMILES: C[C@@H]1CCCCO[C@@H](CN(C)C(=O)Nc2ccc3c(c2)OCO3)[C@@H](C)CN([C@H](C)CO)C(=O)c2cc(NC(=O)Nc3ccc(C(F)(F)F)cc3)ccc2O1
- IC50 [14]: > 69.5 µM (inactive)
- IC50 [15]: > 69.5 µM (inactive)

SMILES: O=C(CSc1nc2ccccc2s1)N/N=C/c1cc([N+](=O)[O-])ccc1O
- IC50 [4]: > 94.1 µM (inactive)

SMILES: Cc1cc(NC(=O)CSc2nc3ccccc3cc2C#N)no1
- IC50 [12]: 19.3 µM (active)
- IC50 [13]: 11 µM (active)

SMILES: COC(=O)c1ccc(-c2cc3onc(-c4ccccc4)c3c(=O)n2C)cc1
- IC50 [14]: > 69.5 µM (inactive)
- IC50 [15]: > 69.5 µM (inactive)

SMILES: COC(=O)c1ccc(-c2nc(O)c(C)s2)cc1
- IC50 [12]: 7.31 µM (active)
- IC50 [13]: 8.08 µM (active)

SMILES: CN1CCN(c2ccc(S(=O)(=O)N3CCCCC3)cc2NC(=O)COc2ccc([N+](=O)[O-])cc2)CC1
- EC50 [16]: 0.353 µM (active)
- EC50 [17]: > 30 µM (not active)
- IC50 [1]: 35.9 µM (inactive)
- IC50 [2]: 1.48 µM (active)
- IC50 [3]: 35.9 µM (inactive)

SMILES: CCc1ccc(NC(=O)C2CCN(S(=O)(=O)c3ccc4c(c3)NC(=O)C(C)S4)CC2)cc1 (stereo not given)
- AC50 [18]: 7.08 µM (active)
- IC50 [19]: 31.8 µM (active)
- AC50 [20]: 6.54 µM (active)
- AC50 [21]: 6 µM (active)
- IC50 [22]: > 100 µM (inactive)
- IC50 [23]: 42 µM (active)

SMILES: Clc1cccc(CNc2nc(-c3cccnc3)nc3ccccc23)c1
- EC50 [16]: 0.952 µM (active)
- EC50 [17]: > 60 µM (not active)
- IC50 [8]: 32 µM (inactive)
- IC50 [9]: 41.9 µM (inactive)
- IC50 [10]: 16.4 µM (inactive)

SMILES: Cc1cc(/C=C2/SC(=S)N(c3cccc(Cl)c3)C2=O)c(C)n1-c1cccnc1
- AC50 [18]: 0.979 µM (active)
- AC50 [20]: 47.8 µM (active)
- AC50 [21]: 3.55 µM (active)
- IC50 [24]: 5.65 µM (active)

SMILES: COc1ccc(Cl)cc1Nc1nc(-c2sc(NC(=O)C(C)(C)C)nc2C)cs1
- IC50 [25]: > 66.6 µM (inactive)
- IC50 [26]: 7.99 µM (active)
- IC50 [24]: 11.2 µM (inactive)

SMILES: O=C(O)c1[nH]c2ccc(Cl)cc2c1CCN1C(=O)c2ccccc2C1=O
- IC50 [5]: > 59.6 µM (inactive)
- IC50 [6]: > 59.6 µM (inactive)
- IC50 [7]: > 59.6 µM (inactive)
- AC50 [27]: 13.6 µM (active)
